Results taken from patent publication US11459339B2, “Biaryl derivative, preparation method thereof and pharmaceutical application thereof” (Abbisko Therapeutics Co., Ltd., priority 2018, dated 2022).

What was measured:
[1] = molecular target: interaction between PD-1 and PD-L1 (Homo sapiens (Human), UniProt Q9NZQ7); assay: PD1-PDL1 HTRF binding activity test (Cisbio PD-1/PD-L1 binding assay kit); conditions: read-out: PD1-PDL1 HTRF Binding Activity IC50
[2] = molecular target: interaction between PD-1 and PD-L1 expressed on cell surfaces (Homo sapiens (Human), UniProt Q9NZQ7); assay: Jurkat reporter gene cellular assay (Jurkat/NF-κB-luc/PD1 cells cocultured with Raji-PD-L1 cells, OKT-3 stimulation); assay type: cell-based; conditions: NF-κB-luc reporter activation fold, 6 hrs; read-out: Cell Activity EC50
Sequence of interaction between PD-1 and PD-L1 expressed on cell surfaces (Q9NZQ7 19-290): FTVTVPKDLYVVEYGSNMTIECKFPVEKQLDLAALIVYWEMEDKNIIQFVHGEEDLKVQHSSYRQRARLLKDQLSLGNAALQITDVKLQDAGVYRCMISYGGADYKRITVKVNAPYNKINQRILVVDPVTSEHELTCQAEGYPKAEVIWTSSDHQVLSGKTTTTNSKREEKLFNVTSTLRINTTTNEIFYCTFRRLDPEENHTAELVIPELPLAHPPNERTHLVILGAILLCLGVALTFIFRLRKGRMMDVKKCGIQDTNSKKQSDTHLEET
Summary of the method: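 EC50 comes from non-linear regression of activation fold (compound reading over DMSO reading) against concentration. Read-out was luciferase signal 6 h after OKT-3-stimulated coculture of PD-1/NF-κB-luc Jurkat cells with PD-L1-expressing Raji cells, 5*10^4 cells each per well.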

Sequence of interaction between PD-1 and PD-L1 (Q9NZQ7 19-238): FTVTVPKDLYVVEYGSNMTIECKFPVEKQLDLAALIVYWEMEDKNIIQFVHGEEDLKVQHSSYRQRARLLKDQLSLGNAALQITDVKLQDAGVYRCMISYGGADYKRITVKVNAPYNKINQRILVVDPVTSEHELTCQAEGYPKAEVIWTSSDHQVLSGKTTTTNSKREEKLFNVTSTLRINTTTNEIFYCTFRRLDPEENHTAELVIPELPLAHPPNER

SMILES	IC50 [1]	EC50 [2]
COc1cc(C(=O)Nc2cccc(-c3cccc(NC(=O)c4cc(OC)c(CN[C@@H]5COC(=O)C5)cn4)c3C)c2C)ncc1CN[C@@H]1COC(=O)C1 [Example 72, N,N'-(2,2′-dimethyl-[1,1′-biphenyl]-3,3′-diyl)bis(4-methoxy-5-((((S)-5-oxotetrahydrofuran-3-yl)amino)methyl)picolinamide)]	0.48 nM	1560 nM
COc1cc(C(=O)Nc2cccc(-c3cccc(NC(=O)c4cc(OC)c(CN[C@H](CO)CC(=O)O)cn4)c3C)c2C)ncc1CN[C@H](CO)CC(=O)O [Example 73, (3S,3′S)-3,3′-((((((2,2′-dimethyl-[1,1′-biphenyl]-3,3′-diyl)bis(azanediyl))bis(carbonyl))bis (4-methoxypyridine-6,3-diyl))bis (methylene))bis(azanediyl))bis(4-hydroxybutanoic acid)]	0.29 nM	812 nM
COc1cc(C(=O)Nc2cccc(-c3cccc(NC(=O)c4cc(OC)c(CN[C@H]5COC(=O)C5)cn4)c3C)c2C)ncc1CN[C@H]1COC(=O)C1 [Example 74]	0.14 nM	303 nM
COc1cc(C(=O)Nc2cccc(-c3cccc(NC(=O)c4cc(OC)c(CN[C@@H](CO)CC(=O)O)cn4)c3C)c2C)ncc1CN[C@@H](CO)CC(=O)O [Example 75]	0.36 nM	782 nM
COC[C@@H](NCc1cnc(C(=O)Nc2cccc(-c3cccc(NC(=O)c4cc(OC)c(CN[C@H](COC)C(=O)OC)cn4)c3C)c2C)cc1OC)C(=O)OC [Example 76, dimethyl 2,2′-((((((2,2′-dimethyl-[1,1′-biphenyl]-3,3′-diyl)bis(azanediyl))bis(carbonyl))bis (4-methoxypyridine-6,3-diyl))bis(methylene))bis(azanediyl))(2R,2′R)-bis(3-methoxypropanoate)]	7.8 nM	3060 nM
COC[C@@H](NCc1cnc(C(=O)Nc2cccc(-c3cccc(NC(=O)c4cc(OC)c(CN[C@H](COC)C(=O)O)cn4)c3C)c2C)cc1OC)C(=O)O [Example 77, (2R,2′R)-2,2′-((((((2,2′-dimethyl-[1,1′-biphenyl]-3,3′-diyl)bis(azanediyl))bis(carbonyl))bis(4-methoxypyridine-6,3-diyl))bis(methylene))bis (azanediyl))bis(3-methoxypropanoic acid)]	0.41 nM	297 nM
COC[C@H](NCc1cnc(C(=O)Nc2cccc(-c3cccc(NC(=O)c4cc(OC)c(CN[C@@H](COC)C(=O)OC)cn4)c3C)c2C)cc1OC)C(=O)OC [Example 78, dimethyl 2,2′-((((((2,2′-dimethyl-[1,1′-biphenyl]-3,3′-diyl)bis(azanediyl))bis(carbonyl))bis(4-methoxypyridine-6,3-diyl))bis(methylene))bis (azanediyl))(2S,2′S)-bis(3-methoxypropanoate)]	10.9 nM	2910 nM
COC[C@H](NCc1cnc(C(=O)Nc2cccc(-c3cccc(NC(=O)c4cc(OC)c(CN[C@@H](COC)C(=O)O)cn4)c3C)c2C)cc1OC)C(=O)O [Example 79, (2S,2′S)-2,2′-((((((2,2′-dimethyl-[1,1′-biphenyl]-3,3′-diyl)bis(azanediyl))bis(carbonyl))bis(4-methoxypyridine-6,3-diyl))bis(methylene))bis (azanediyl))bis(3-methoxypropanoic acid)]	0.65 nM	171 nM
COc1cc(C(=O)Nc2cccc(-c3cccc(NC(=O)c4cc(OC)c(CNCCS(C)(=O)=O)cn4)c3C)c2C)ncc1CNCCS(C)(=O)=O [Example 80, N,N'-(2,2′-dimethyl-[1,1′-biphenyl]-3,3′-diyl)bis(4-methoxy-5-(((2-(methylsulfonyl)ethyl)amino)methyl)picolinamide)]	0.082 nM	3740 nM
COc1cc(C(=O)Nc2cccc(-c3cccc(NC(=O)c4cc(OC)c(CNCC[S+](C)[O-])cn4)c3C)c2C)ncc1CNCC[S+](C)[O-] (stereo not drawn) [Example 81, N,N'-(2,2′-dimethyl-[1,1′-biphenyl]-3,3′-diyl)bis(4-methoxy-5-(((2-(methylsulfinyl)ethyl)amino)methyl)picolinamide)]	0.43 nM	900 nM
COC(=O)[C@H]1CCN(Cc2cnc(C(=O)Nc3cccc(-c4cccc(NC(=O)c5cc(OC)c(CN6CC[C@H](C(=O)OC)C6)cn5)c4C)c3C)cc2OC)C1 [Example 82, dimethyl 1,1′-(((((2,2′-dimethyl-[1,1-biphenyl]-3,3′-diyl)bis(azanediyl))bis(carbonyl))bis(4-methoxypyridine-6,3-diyl))bis(methylene))(3S,3′S)-bis(pyrrolidine-3-carboxylate)]	1.9 nM	566 nM
COc1cc(C(=O)Nc2cccc(-c3cccc(NC(=O)c4cc(OC)c(CN5CC[C@H](C(=O)O)C5)cn4)c3C)c2C)ncc1CN1CC[C@H](C(=O)O)C1 [Example 83, (3S,3′S)-1,1′-(((((2,2′-dimethyl-[1,1′-biphenyl]-3,3′-diyl)bis(azanediyl))bis(carbonyl))bis(4-methoxypyridine-6,3-diyl))bis(methylene))bis (pyrroidine-3-carboxylic acid)]	1.04 nM	309 nM
COC(=O)C1CCN(Cc2cnc(C(=O)Nc3cccc(-c4cccc(NC(=O)c5cc(OC)c(CN6CCC(C(=O)OC)CC6)cn5)c4C)c3C)cc2OC)CC1 [Example 84, dimethyl 1,1′-(((((2,2′-dimethyl-[1,1′-biphenyl]-3,3′-diyl)bis(azanediyl))bis(carbonyl))bis(4-methoxypyridine-6,3-diyl))bis(methylene))bis(piperidine-4-carboxylate)]	1.36 nM	603 nM
COc1cc(C(=O)Nc2cccc(-c3cccc(NC(=O)c4cc(OC)c(CN5CCC(C(=O)O)CC5)cn4)c3C)c2C)ncc1CN1CCC(C(=O)O)CC1 [Example 85, 1,1′-(((((2,2′-dimethyl-[1,1′-biphenyl]-3,3′-diyl)bis(azanediyl))bis(carbonyl))bis (4-methoxypyridine-6,3-diyl))bis(methylene))bis (piperidine-4-carboxylic acid)]	0.45 nM	341 nM
COc1cc(C(=O)Nc2cccc(-c3cccc(NC(=O)c4cc(OC)c(CN[C@H](CO)C(N)=O)cn4)c3C)c2C)ncc1CN[C@H](CO)C(N)=O [Example 86, N,N′-(2,2′-dimethyl-[1,1′-biphenyl]-3,3′-diyl)bis(5-((((R)-1-amino-3-hydroxy-1-oxopropan-2-yl)amino)methyl)-4-methoxypicolinamide)]	1.34 nM	406 nM
CCNC(=O)[C@@H](CO)NCc1cnc(C(=O)Nc2cccc(-c3cccc(NC(=O)c4cc(OC)c(CN[C@H](CO)C(=O)NCC)cn4)c3C)c2C)cc1OC [Example 87]	1.08 nM	800 nM
COc1cc(C(=O)Nc2cccc(-c3cccc(NC(=O)c4cc(OC)c(CNCCS(C)(=N)=O)cn4)c3C)c2C)ncc1CNCCS(C)(=N)=O (stereo not drawn) [Example 88, N,N'-(2,2′-dimethyl-[1,1′-biphenyl]-3,3′-diyl)bis(4-methoxy-5-(((2-(S-methylsulfonimidoyl)ethyl)amino)methyl)picolinamide)]	0.41 nM	182 nM
COc1cc(C(=O)Nc2cccc(-c3cccc(NC(=O)c4cc(OC)c(CNCCN=S(C)(C)=O)cn4)c3C)c2C)ncc1CNCCN=S(C)(C)=O [Example 89, N,N'-(2,2′-dimethyl-[1,1′-biphenyl]-3,3′-diyl)bis(5-(((2-((dimethyl(oxo)λ^6-sulfaneylidene)amino)ethyl)amino)methyl)-4-methoxypicolinamide)]	0.87 nM	427 nM
COc1cc(C(=O)Nc2cccc(-c3cccc(NC(=O)c4cc(OC)c(CNCCN=S5(=O)CCCC5)cn4)c3C)c2C)ncc1CNCCN=S1(=O)CCCC1 [Example 90, N,N'-(2,2′-dimethyl-[1,1′-biphenyl]-3,3′-diyl)bis(4-methoxy-5-(((2-((1-oxidotetrahydro-1λ^6-thiophen-1-ylidene)amino)ethyl)amino)methyl)picolinamide)]	0.36 nM	131 nM
Cc1c(NC(=O)c2cc(C3CC3)c(CNCCO)cn2)cccc1-c1cccc(NC(=O)c2cc(C3CC3)c(CNCCO)cn2)c1C [Example 91, N,N'-(2,2′-dimethyl-[1,1′-biphenyl]-3,3′-diyl)bis(4-cyclopropyl-5-(((2-hydroxyethyl)amino)methyl)picolinamide)]	0.16 nM	39 nM
Cc1c(NC(=O)c2cc(C3CC3)c(CNC(CO)CO)cn2)cccc1-c1cccc(NC(=O)c2cc(C3CC3)c(CNC(CO)CO)cn2)c1C [Example 92, N,N′-(2,2′-dimethyl-[1,1′-biphenyl]-3,3′-diyl)bis(4-cyclopropyl-5-(((1,3-dihydroxypropan-2-yl)amino)methyl)picolinamide)]	0.87 nM	54.7 nM
CC(=O)NCCNCc1cnc(C(=O)Nc2cccc(-c3cccc(NC(=O)c4cc(C5CC5)c(CNCCNC(C)=O)cn4)c3C)c2C)cc1C1CC1 [Example 93, N,N'-(2,2′-dimethyl-[1,1′-biphenyl]-3,3′-diyl)bis(5-(((2-acetamidoethyl)amino)methyl)-4-cyclopropylpicolinamide)]	1.49 nM	104 nM
Cc1c(NC(=O)c2cc(C3CC3)c(CNCC3(O)CC3)cn2)cccc1-c1cccc(NC(=O)c2cc(C3CC3)c(CNCC3(O)CC3)cn2)c1C [Example 94, N,N'-(2,2′-dimethyl-[1,1′-biphenyl]-3,3′-diyl)bis(4-cyclopropyl-5-((((1-hydroxycyclopropyl)methyl)amino)methyl)picolinamide)]	4.75 nM	566 nM
Cc1c(NC(=O)c2cc(C3CC3)c(CN[C@H](C)CO)cn2)cccc1-c1cccc(NC(=O)c2cc(C3CC3)c(CN[C@H](C)CO)cn2)c1C [Example 95, N,N'-(2,2′-dimethyl-[1,1′-biphenyl]-3,3′-diyl)bis(4-cyclopropyl-5-((((R)-1-hydroxypropan-2-yl)amino)methyl)picolinamide)]	2.02 nM	125 nM
